Results published in ChEMBL document CHEMBL1141619, “Discovery of novel inhibitors of 11beta-hydroxysteroid dehydrogenase type 1 by docking and pharmacophore modeling” (Bioorg Med Chem Lett, 2008).

How the values were obtained:
[1] = target: 11-beta-hydroxysteroid dehydrogenase 1 (Mus musculus) (UniProt P50172); assay: Inhibition of mouse 11beta-HSD1 at 10 uM
[2] = target: T1, 11-beta-hydroxysteroid dehydrogenase type 2 (Mus musculus) (UniProt P51661); assay: Inhibition of mouse 11beta-HSD2 at 10 uM
T1 sequence (whole entry): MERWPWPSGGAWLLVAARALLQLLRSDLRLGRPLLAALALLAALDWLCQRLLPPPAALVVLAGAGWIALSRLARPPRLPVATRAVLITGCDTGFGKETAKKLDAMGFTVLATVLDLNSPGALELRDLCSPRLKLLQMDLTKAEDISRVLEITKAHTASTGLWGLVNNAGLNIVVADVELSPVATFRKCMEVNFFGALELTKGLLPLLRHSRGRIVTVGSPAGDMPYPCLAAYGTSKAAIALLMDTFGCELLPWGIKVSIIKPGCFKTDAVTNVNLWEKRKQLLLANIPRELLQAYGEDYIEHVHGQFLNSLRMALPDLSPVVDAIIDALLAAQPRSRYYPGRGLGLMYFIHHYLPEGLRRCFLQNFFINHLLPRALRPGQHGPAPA

[3] = target: 11-beta-hydroxysteroid dehydrogenase 1 (Mus musculus, UniProt P50172); assay: Inhibition of mouse 11beta-HSD1
Sequence of 11-beta-hydroxysteroid dehydrogenase 1 (P50172 whole entry): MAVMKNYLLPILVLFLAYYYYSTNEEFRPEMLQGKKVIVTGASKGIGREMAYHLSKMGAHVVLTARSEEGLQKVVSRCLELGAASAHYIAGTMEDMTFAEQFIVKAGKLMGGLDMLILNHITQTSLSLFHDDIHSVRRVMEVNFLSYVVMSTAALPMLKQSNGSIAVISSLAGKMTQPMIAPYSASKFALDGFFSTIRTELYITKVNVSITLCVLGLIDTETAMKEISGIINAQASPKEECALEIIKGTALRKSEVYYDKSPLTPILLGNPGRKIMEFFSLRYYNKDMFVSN

Sequence of 11-beta-hydroxysteroid dehydrogenase 1 (Mus musculus) (P50172 whole entry, looked up): as the sequence (P50172 whole entry) above

Compound	inhibition [1] [%]	inhibition [2] [%]	IC50 [3] [µM]
Cc1cc(NS(=O)(=O)c2ccc(NC(=O)c3ccc(C(=O)C(=O)c4ccccc4)cc3)cc2)nc(C)n1		9.1	0.48
O=C(CN1C(=O)C2C3c4ccccc4C(c4ccccc43)C2C1=O)Nc1cccc(Cl)c1 (configuration not stated)		2.2	12.5
CC(C)COC(=O)c1ccc(NC(=O)c2ccc3c(c2)-c2ccccc2C3=O)cc1		3.7	3.6
O=C(CSc1nc2ccc(NC(=O)c3ccccc3Br)cc2s1)NCCc1ccccc1		0	2.09

Further lines, results first:

inhibition [1] [%]	inhibition [2] [%]	IC50 [3] [µM]	Compound
60	3.4		Cc1ccc(C(=O)COC(=O)C(Cc2ccccc2)N2C(=O)c3ccccc3C2=O)cc1 (configuration not stated)
	0.8	6.1	Cc1ccc(S(=O)(=O)N(CC(=O)N2CCCCCC2)c2cc(Cl)ccc2C)cc1
